# Experimental data published in patent US10945975B2, “Delaying latency to seizure by combinations of ketone supplements” (priority 2016, dated 2021).
# Marks after values point to notes of the source that are not given here.
# Assays:
# Type in all cases: in vivo, Sprague-Dawley rats
# rat model of CNS-OT [1] = experiment: Latency to seizure in rat model of CNS-OT (hyperbaric oxygen, 5 ATA); details: 5 g/kg
# Procedure: (§1) The effect of various ketogenic compositions on latency to seizure and seizure severity was tested in a rat model of CNS-OT. Adult male Sprague-Dawley rats (n=60), 250-300 grams (Harlan) were used in the experiments described herein. Rats were given normal chow and water ad libitum and kept on a 12-hour light/dark cycle. At […], the rats were assigned to one of 5 treatment groups: control (water), 1,3-butanediol acetoacetate diester (KE, 10 g/kg), KE/2 (KE, 5 g/kg), KE+MCT (1,3-butanediol acetoacetate diester+medium chain triglyceride, 5 g/kg+5 g/kg) and KS+MCT (Na^+Ca^2+BHB 5 g/kg+MCT 5 g/kg). Rats received one dose of the designated ketogenic agent or water by oral gavage. Rats were then placed into the hyperbaric chamber 29-30 minutes after treatment, and pressurized to 5 atmospheres as provided below, such that rats were exposed to the hyperbaric conditions at 60 minutes after treatment.
# The hyperbaric system consisted of two main elements: 1) a plexiglass chamber (˜3 liter capacity, Diamond Box, Buxco, Electronics Inc., model PLY3114), that housed the rat during the experiment, and 2) a hyperbaric chamber (Reimers System Inc.—7.8 ATA MWP), that contained the plexiglass chamber and functioned as the pressure vessel. Both chambers were connected to an air compressor (oil-less rotary scroll compressor—model DK6086, Powerex).
# (§2) Rats were placed in the hyperbaric chamber, where the rats were allowed 10 minutes to acclimate in air. Then the plexiglass chamber was filled with pure oxygen, and the rats were allowed another 15 minutes to acclimate. The outer chamber was pressurized using air (capacity ˜205 liters) to minimize the risk of an electrical-induced fire. Next, both chambers were compressed to 5 atmospheres absolute (ATA) at a rate of approximately 1 ATA/min. Each experiment was visually monitored via a live camera.
# Latency to seizure (LS) was calculated from the moment at which the internal and the external chambers reached 5 ATA until the onset of CNS-OT seizures, as identified above. After the onset of seizures, the plexiglass chamber was flushed with air to quickly terminate seizure, and both chambers decompressed to sea level. Decompression rate was 1 ATA/min. A small sample of blood was drawn and tested immediately for glucose and beta-hydroxybutyrate levels.
# [2] = Blood beta-hydroxybutyrate (BHB) levels after removal from the hyperbaric chamber; details: 5 g/kg, oral gavage
# Procedure: as §1, with “Rats were then placed into the hyperbaric chamber 29-30 minutes after treatment, and pressurized to 5 atmospheres as provided below, such that rats were exposed to the hyperbaric conditions at 60 minutes after treatment.” left out
# (§3) Latency to seizure (LS) was calculated from the moment at which the internal and the external chambers reached 5 ATA until the onset of CNS-OT seizures, as identified above. […]
# (§4) Body weights were collected for all rats prior to oral gavage of treatment. Blood concentrations of glucose and beta-hydroxybutyrate (BHB) were determined utilizing a commercially available glucose/ketone monitoring system (Precision Xtra® blood glucose and ketone meter) immediately following removal from the hyperbaric chamber. […]
# rat model of CNS-OT [3] = experiment: Seizure severity score in rat model of CNS-OT; details: 5 g/kg, oral gavage; FIG. 4
# Procedure: as §1
# as §2, with “Next, both chambers were compressed to 5 atmospheres absolute (ATA) at a rate of approximately 1 ATA/min.” left out, “camera. […]” for “camera.”
# [4] = Blood glucose levels after removal from the hyperbaric chamber; details: 10 g/kg, oral gavage; FIG. 7
# Procedure: as §1, with “Rats were then placed into the hyperbaric chamber 29-30 minutes after treatment, and pressurized to 5 atmospheres as provided below, such that rats were exposed to the hyperbaric conditions at 60 minutes after treatment.” left out
# as §3, §4
structure (smiles),measurement,setting,value
"CC(=O)CC(=O)OCCC(C)OC(=O)CC(C)=O (centres unmarked) [KE, 1,3-butanediol acetoacetate diester]","T-test (p), latency to time of seizure vs control","rat model of CNS-OT [1]; one dose oral gavage, 5 ATA O2, all collected data",0.256†
same,Latency to seizure compared to control,"rat model of CNS-OT [1]; oral gavage, FIG. 1, all data",about 2 ×
same,"T-test (p), latency to time of seizure vs control","rat model of CNS-OT [1]; oral gavage, outliers excluded (2 standard deviations)",0.023*
same,Latency to seizure compared to control (in words),"rat model of CNS-OT [1]; outliers removed, FIG. 2",significantly increased latency to seizure compared to control
same,Blood BHB levels compared to control,[2]; FIG. 6,about 3 ×
same,"T-test (p), BHB levels vs control",[2]; all collected data,0.0012**
same,"Seizure severity (score 0-3) vs control, in words",rat model of CNS-OT [3],some suppression
same,Blood glucose levels (in words),[4],highest blood glucose levels
